Measured values as given in PMC10786919, “Design-rules for stapled peptides with in vivo activity and their application to Mdm2/X antagonists” (Nature Communications, 2024).
Positions of bridges follow the written chain, without caps; N, C: chain ends. Non-standard residues stand in square brackets, D forms with d. Residues, ends and D or L forms follow the SMILES beside them. 2Nal = N[C@@H](Cc1ccc2ccccc2c1)C(=O)O; tBuAla = CC(C)(C)C[C@H](N)C(=O)O; R8 = C=CCCCCCC[C@@](C)(N)C(=O)O; R5 = C=CCCC[C@@](C)(N)C(=O)O; S5 = C=CCCC[C@](C)(N)C(=O)O; Aib = CC(C)(N)C(=O)O; Ahx = NCCCCCC(=O)O

How the values were obtained:
Format in all cases: cell-based
HCT116 cells = assay: Lactate dehydrogenase (LDH) release assay
Summary of the method: (§1)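 LDH release, fluorometric membrane-integrity read-out; HCT116 with stable p53-responsive β-lactamase reporter; 8000 cells/well; 0.5% DMSO final; geometric mean, n≥3 biological replicates.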

[1] = Lactate dehydrogenase (LDH) release assay; details: LDH: Cytotoxicity assay EC50
Summary of the method: as §1

[2] = test system: Jump-In T-REx CHO-K1 BLA cells; assay: cells; details: 0% FBS 4Hr; for EC50: read-out: TETCHO: Counterscreen EC50
Method: This assay was based on Jump-In™ T-REx™ CHO-K1 BLA cells containing a stably integrated β-lactamase under the control of an inducible cytomegalovirus (CMV) promoter. Cells were maintained in Dulbecco’s […] Eagle Medium (DMEM) with 10% fetal bovine serum (FBS), Blasticidin, and Penicillin/Streptomycin and then transferred to 1.5 ml freezing vials and stored under liquid nitrogen in growth media containing 5% DMSO. […] Cells were seeded into a 384-well plate at a density of 4000 cells per well. Peptides were then dispensed to each well using a liquid handler, ECHO 555 and incubated for 16 h. The final working concentration of DMSO was 0.5%. β-lactamase activity was detected using the ToxBLAzer Dual Screen (Invitrogen), as per the manufacturer’s instructions. Measurements were carried out using the Envision multiplate reader (Perkin–Elmer). Counterscreen activity was defined as the amount of β-lactamase activity induced by tetracycline. Measurements were taken a minimum of three times (biological replicates) and values are reported as geometric means of the replicates.

[3] = test system: p53 responsive β-lactamase reporter in HCT116 cells; assay: cells; details: 0% FBS 4Hr; read-out: p53 reporter assay EC50
Summary of the method: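 Read-out used the ToxBLAzer Dual Screen for β-lactamase driven by a stably integrated p53-responsive reporter. Assay: 8000 HCT116 cells per well at 0.5% final DMSO. Reported numbers are geometric means over a minimum of three biological replicates.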

| Structure (SMILES) | LDH: Cytotoxicity assay % Effect (HCT116 cells) [%] | EC50 [1] [µM] | TETCHO: Counterscreen % Effect [2] [%] | EC50 [2] [µM] | EC50 [3] [µM] |
| --- | --- | --- | --- | --- | --- |
| CC(=O)N[C@@H](Cc1c[nH]cn1)C(=O)N[C@@H](Cc1c[nH]cn1)C(=O)N[C@@H](Cc1c[nH]cn1)C(=O)NCCCCCC(=O)N[C@H](C(=O)N[C@@H](CO)C(=O)N[C@@H](Cc1ccccc1)C(=O)N[C@]1(C)CCCCCCC=CCCC[C@@](C)(C(N)=O)NC(=O)[C@H](CC(C)C)NC(=O)[C@H](CC(C)C)NC(=O)[C@H](C)NC(=O)[C@H](Cc2c[nH]c3ccccc23)NC(=O)[C@H](Cc2ccc(O)cc2)NC(=O)[C@H](CCC(=O)O)NC1=O)[C@@H](C)O [MP-008] | 42.18 | 28.5 | 75.71 | > 50 | 17.9 |
| CC(=O)N[C@@H](CCCNC(=N)N)C(=O)N[C@@H](CCCNC(=N)N)C(=O)N[C@@H](CCCNC(=N)N)C(=O)NCCCCCC(=O)N[C@H](C(=O)N[C@@H](CO)C(=O)N[C@@H](Cc1ccccc1)C(=O)N[C@]1(C)CCCCCCC=CCCC[C@@](C)(C(=O)N[C@@H](CCC(=O)O)C(=O)N[C@@H](CC(N)=O)C(=O)N[C@@H](Cc2ccccc2)C(N)=O)NC(=O)[C@H](CC(C)C)NC(=O)[C@H](CC(C)C)NC(=O)[C@H](C)NC(=O)[C@H](Cc2c[nH]c3ccccc23)NC(=O)[C@H](Cc2ccc(O)cc2)NC(=O)[C@H](CCC(=O)O)NC1=O)[C@@H](C)O [MP-2009] (Ac-RRR[Ahx]TSF[R8]EYWALL[S5]ENF-NH2; staple 8-15) | 32.46 | > 50 | 68.36 | 16.6 | 9.74 |
| CC(=O)N[C@@H](CCCCN)C(=O)N[C@@H](CCCCN)C(=O)NCCCCCC(=O)N[C@H](C(=O)N[C@@H](CO)C(=O)N[C@@H](Cc1ccccc1)C(=O)N[C@]1(C)CCCCCCC=CCCC[C@@](C)(C(=O)N[C@@H](CCC(=O)O)C(=O)N[C@@H](CC(N)=O)C(=O)N[C@@H](Cc2ccc(O)cc2)C(N)=O)NC(=O)[C@H](CC(C)C)NC(=O)[C@H](CC(C)C)NC(=O)[C@H](C)NC(=O)[C@H](Cc2c[nH]c3ccccc23)NC(=O)[C@H](Cc2ccc(O)cc2)NC(=O)[C@H](CCC(=O)O)NC1=O)[C@@H](C)O [MP-013] (Ac-KK[Ahx]TSF[R8]EYWALL[S5]ENY-NH2; staple 7-14) | -1.001 | > 50 | 11.6 | > 50 | 8.65 |
| CC(=O)N[C@H](C(=O)N[C@@H](CO)C(=O)N[C@@H](Cc1ccccc1)C(=O)N[C@]1(C)CCCCCCC=CCCC[C@@](C)(C(N)=O)NC(=O)[C@H](CC(C)C)NC(=O)[C@H](CC(C)C)NC(=O)[C@H](C)NC(=O)[C@H](Cc2c[nH]c3ccccc23)NC(=O)[C@H](Cc2ccc(O)cc2)NC(=O)[C@H](CCC(N)=O)NC1=O)[C@@H](C)O [MP-163] (Ac-TSF[R8]QYWALL[S5]-NH2; staple 4-11) | 6.049 | > 50 | 21.33 | > 50 | 11.5 |
| CC(=O)N[C@H](C(=O)N[C@@H](CO)C(=O)N[C@@H](Cc1ccc2ccccc2c1)C(=O)NC(C)(C)C(=O)N[C@@H](CCC(=O)O)C(=O)N[C@@H](Cc1ccc(O)cc1)C(=O)N[C@@H](Cc1c[nH]c2ccccc12)C(=O)N[C@@H](C)C(=O)N[C@@H](CC(C)C)C(=O)N[C@@H](CC(C)C)C(=O)NC(C)(C)C(N)=O)[C@@H](C)O [MP-161] (Ac-TS[2Nal][Aib]EYWALL[Aib]-NH2) | -0.5798 | > 50 | 26.11 | 19.4 | 6.65 |
| CC(=O)N[C@H](C(=O)N[C@@H](CO)C(=O)N[C@@H](Cc1ccccc1)C(=O)N[C@]1(C)CCCCCCC=CCCC[C@@](C)(C(=O)N[C@@H](CO)C(=O)N[C@@H](C)C(=O)N[C@@H](C)C(=O)N[C@@H](CCC(=O)O)C(N)=O)NC(=O)[C@H](CC(C)(C)C)NC(=O)[C@H](CC(C)C)NC(=O)[C@H](C)NC(=O)[C@H](Cc2c[nH]c3ccccc23)NC(=O)[C@H](Cc2ccc(O)cc2)NC(=O)[C@H](CCC(=O)O)NC1=O)[C@@H](C)O [MP-143] (Ac-TSF[R8]EYWAL[tBuAla][S5]SAAE-NH2; staple 4-11) | 5.215 | > 50 | 0.6237 | > 50 | 8.92 |
| CC(=O)N[C@H](C(=O)N[C@@H](CO)C(=O)N[C@@H](Cc1ccccc1)C(=O)NC(C)(C)C(=O)N[C@@H](CCC(=O)O)C(=O)N[C@@H](Cc1ccc(O)cc1)C(=O)N[C@@H](Cc1c[nH]c2ccccc12)C(=O)N[C@@H](C)C(=O)N[C@@H](CC(C)C)C(=O)N[C@@H](CC(C)(C)C)C(=O)NC(C)(C)C(N)=O)[C@@H](C)O [MP-155] (Ac-TSF[Aib]EYWAL[tBuAla][Aib]-NH2) | -0.2131 | > 50 | -0.6205 | > 50 | 12.4 |
| CC(=O)N[C@H](C(=O)N[C@@H](CO)C(=O)N[C@@H](Cc1ccccc1)C(=O)N[C@]1(C)CCCCCCC=CCCC[C@@](C)(C(=O)O)NC(=O)[C@H](CC(C)C)NC(=O)[C@H](CC(C)C)NC(=O)[C@H](C)NC(=O)[C@H](Cc2c[nH]c3ccccc23)NC(=O)[C@H](Cc2ccc(O)cc2)NC(=O)[C@H](CCC(=O)O)NC1=O)[C@@H](C)O [MP-162] | 20.08 | > 50.7 | 18.54 | 46.9 | 36.2 |
| CC(=O)N[C@H](C(=O)N[C@@H](CO)C(=O)N[C@@H](Cc1ccccc1)C(=O)N[C@]1(C)CCCC=CCCC[C@](C)(C(=O)N[C@@H](CC(C)C)C(=O)N[C@@H](CC(C)C)C(=O)N[C@@H](CO)C(=O)N[C@@H](CCC(=O)O)C(=O)N[C@@H](CC(N)=O)C(=O)N[C@@H](Cc2ccccc2)C(N)=O)NC(=O)[C@H](Cc2c[nH]c3ccccc23)NC(=O)[C@H](Cc2ccc(O)cc2)NC(=O)[C@H](CCC(=O)O)NC1=O)[C@@H](C)O [MP-167] (Ac-TSF[R5]EYW[R5]LLSENF-NH2; staple 4-8) | 34.73 | 26 | 22.82 | 12.1 | 8.78 |
| CC(=O)N[C@H](C(=O)N[C@@H](CO)C(=O)N[C@@H](Cc1ccccc1)C(=O)N[C@]1(C)CCCC=CCCC[C@](C)(C(=O)N[C@@H](CC(C)C)C(=O)N[C@@H](CC(C)C)C(=O)N2CCC[C@H]2C(N)=O)NC(=O)[C@H](Cc2c[nH]c3ccccc23)NC(=O)[C@H](Cc2ccc(O)cc2)NC(=O)[C@H](CCC(=O)O)NC1=O)[C@@H](C)O [MP-1174] (Ac-TSF[R5]EYW[R5]LLP-NH2; staple 4-8) | 2.374 | > 50 | 7.183 | > 50 | 18.7 |
| CC(=O)N[C@H](C(=O)N[C@@H](CO)C(=O)N[C@@H](Cc1ccccc1)C(=O)N[C@]1(C)CCCCCCC=CCCC[C@@](C)(C(N)=O)NC(=O)[C@H](CC(C)(C)C)NC(=O)[C@H](CC(C)C)NC(=O)[C@H](C)NC(=O)[C@H](Cc2c[nH]c3ccccc23)NC(=O)[C@H](Cc2ccc(O)cc2)NC(=O)[C@H](CCC(=O)O)NC1=O)[C@@H](C)O [MP-149] (Ac-TSF[R8]EYWAL[tBuAla][S5]-NH2; staple 4-11) | 42.59 | 28.3 | 20.68 | > 50 | 12.6 |
